{"source": "ChEMBL document CHEMBL3872249", "about": "“Computer design, synthesis, and bioactivity analyses of drugs like fingolimod used in the treatment of multiple sclerosis” (Bioorg Med Chem, 2017)", "format_in_all_cases": "functional", "key": {"[1]": {"tested_on": "SH-SY5Y", "experiment": "Effect on PTGDR mRNA expression in human SH-SY5Y cells at EC10 by qPCR method relative to beta-actin"}, "[2]": {"tested_on": "SH-SY5Y", "experiment": "Effect on CSF1 mRNA expression in human SH-SY5Y cells at EC10 by qPCR method relative to beta-actin"}, "[3]": {"tested_on": "SK-N-SH", "experiment": "Effect on GRM5 mRNA expression in human SK-N-SH cells at EC10 by qPCR method relative to beta-actin"}, "[4]": {"tested_on": "SK-N-SH", "experiment": "Effect on MAL mRNA expression in human SK-N-SH cells at EC10 by qPCR method relative to beta-actin"}, "[5]": {"tested_on": "SK-N-SH", "experiment": "Effect on ITGB2 mRNA expression in human SK-N-SH cells at EC10 by qPCR method relative to beta-actin"}, "[6]": {"tested_on": "SH-SY5Y", "experiment": "Effect on FOXP3 mRNA expression in human SH-SY5Y cells at EC10 by qPCR method relative to beta-actin"}, "[7]": {"tested_on": "U-118-MG", "experiment": "Effect on STAT3 mRNA expression in human U118MG cells at EC10 by qPCR method relative to beta-actin"}, "[8]": {"tested_on": "U-118-MG", "experiment": "Effect on HIF1A mRNA expression in human U118MG cells at EC10 by qPCR method relative to beta-actin"}, "[9]": {"tested_on": "SH-SY5Y", "experiment": "Effect on HIF1A mRNA expression in human SH-SY5Y cells at EC10 by qPCR method relative to beta-actin"}, "[10]": {"tested_on": "SH-SY5Y", "experiment": "Effect on AGT mRNA expression in human SH-SY5Y cells at EC10 by qPCR method relative to beta-actin"}, "[11]": {"tested_on": "SH-SY5Y", "experiment": "Effect on GRM5 mRNA expression in human SH-SY5Y cells at EC10 by qPCR method relative to beta-actin"}, "[12]": {"tested_on": "SK-N-SH", "experiment": "Effect on AGT mRNA expression in human SK-N-SH cells at EC10 by qPCR method relative to beta-actin"}, "[13]": {"tested_on": "SK-N-SH", "experiment": "Effect on EDN1 mRNA expression in human SK-N-SH cells at EC10 by qPCR method relative to beta-actin"}, "[14]": {"tested_on": "SK-N-SH", "experiment": "Effect on IL2 mRNA expression in human SK-N-SH cells at EC10 by qPCR method relative to beta-actin"}, "[15]": {"tested_on": "SK-N-SH", "experiment": "Effect on LTA mRNA expression in human SK-N-SH cells at EC10 by qPCR method relative to beta-actin"}, "[16]": {"tested_on": "U-118-MG", "experiment": "Effect on GRM1 mRNA expression in human U118MG cells at EC10 by qPCR method relative to beta-actin"}, "[17]": {"tested_on": "SK-N-SH", "experiment": "Effect on IL13 mRNA expression in human SK-N-SH cells at EC10 by qPCR method relative to beta-actin"}, "[18]": {"tested_on": "U-118-MG", "experiment": "Effect on VEGFA mRNA expression in human U118MG cells at EC10 by qPCR method relative to beta-actin"}, "[19]": {"tested_on": "SK-N-SH", "experiment": "Effect on CXCL11 mRNA expression in human SK-N-SH cells at EC10 by qPCR method relative to beta-actin"}, "[20]": {"tested_on": "U-118-MG", "experiment": "Effect on CRHR1 mRNA expression in human U118MG cells at EC10 by qPCR method relative to beta-actin"}, "[21]": {"tested_on": "SK-N-SH", "experiment": "Effect on IL18 mRNA expression in human SK-N-SH cells at EC10 by qPCR method relative to beta-actin"}, "[22]": {"tested_on": "U-118-MG", "experiment": "Effect on IL13 mRNA expression in human U118MG cells at EC10 by qPCR method relative to beta-actin"}, "[23]": {"tested_on": "U-118-MG", "experiment": "Effect on IL18 mRNA expression in human U118MG cells at EC10 by qPCR method relative to beta-actin"}, "[24]": {"tested_on": "SH-SY5Y", "experiment": "Effect on GCGR mRNA expression in human SH-SY5Y cells at EC10 by qPCR method relative to beta-actin"}, "[25]": {"tested_on": "SH-SY5Y", "experiment": "Effect on MAPK1 mRNA expression in human SH-SY5Y cells at EC10 by qPCR method relative to beta-actin"}, "[26]": {"tested_on": "U-118-MG", "experiment": "Effect on CSF1 mRNA expression in human U118MG cells at EC10 by qPCR method relative to beta-actin"}, "[27]": {"tested_on": "SH-SY5Y", "experiment": "Effect on IL18 mRNA expression in human SH-SY5Y cells at EC10 by qPCR method relative to beta-actin"}, "[28]": {"tested_on": "SH-SY5Y", "experiment": "Effect on CRHR1 mRNA expression in human SH-SY5Y cells at EC10 by qPCR method relative to beta-actin"}, "[29]": {"tested_on": "SK-N-SH", "experiment": "Effect on TGFB1 mRNA expression in human SK-N-SH cells at EC10 by qPCR method relative to beta-actin"}, "[30]": {"tested_on": "SH-SY5Y", "experiment": "Effect on TGFB1 mRNA expression in human SH-SY5Y cells at EC10 by qPCR method relative to beta-actin"}, "[31]": {"tested_on": "SK-N-SH", "experiment": "Effect on HLA-DRB1 mRNA expression in human SK-N-SH cells at EC10 by qPCR method relative to beta-actin"}, "[32]": {"tested_on": "U-118-MG", "experiment": "Effect on GRM4 mRNA expression in human U118MG cells at EC10 by qPCR method relative to beta-actin"}, "[33]": {"tested_on": "U-118-MG", "experiment": "Effect on SOD1 mRNA expression in human U118MG cells at EC10 by qPCR method relative to beta-actin"}, "[34]": {"tested_on": "SK-N-SH", "experiment": "Effect on TGFB2 mRNA expression in human SK-N-SH cells at EC10 by qPCR method relative to beta-actin"}, "[35]": {"tested_on": "U-118-MG", "experiment": "Effect on CCL5 mRNA expression in human U118MG cells at EC10 by qPCR method relative to beta-actin"}, "[36]": {"tested_on": "SK-N-SH", "experiment": "Effect on CCL5 mRNA expression in human SK-N-SH cells at EC10 by qPCR method relative to beta-actin"}, "[37]": {"tested_on": "U-118-MG", "experiment": "Effect on TNFRSF1B mRNA expression in human U118MG cells at EC10 by qPCR method relative to beta-actin"}, "[38]": {"tested_on": "SK-N-SH", "experiment": "Effect on CXCL9 mRNA expression in human SK-N-SH cells at EC10 by qPCR method relative to beta-actin"}, "[39]": {"tested_on": "U-118-MG", "experiment": "Effect on TGFB2 mRNA expression in human U118MG cells at EC10 by qPCR method relative to beta-actin"}, "[40]": {"tested_on": "SH-SY5Y", "experiment": "Effect on CCL5 mRNA expression in human SH-SY5Y cells at EC10 by qPCR method relative to beta-actin"}}}
{"compound": "CCCCCCCCc1ccc(CCC(N)(CO)CO)cc1", "note": "[FINGOLIMOD]", "values": [{"measurement": "fold change (FC)", "setting": "[1]", "value": -4.9331}, {"measurement": "fold change (FC)", "setting": "[2]", "value": -3.1329}, {"measurement": "fold change (FC)", "setting": "[3]", "value": -5.4523}, {"measurement": "fold change (FC)", "setting": "[4]", "value": -4.2778}, {"measurement": "fold change (FC)", "setting": "[5]", "value": -6.3947}, {"measurement": "fold change (FC)", "setting": "[6]", "value": -5.5022}, {"measurement": "fold change (FC)", "setting": "[7]", "value": -2.5624}, {"measurement": "fold change (FC)", "setting": "[8]", "value": -3.2716}, {"measurement": "fold change (FC)", "setting": "[9]", "value": -8.3109}, {"measurement": "fold change (FC)", "setting": "[10]", "value": 3.9041}, {"measurement": "fold change (FC)", "setting": "[11]", "value": -3.3753}, {"measurement": "fold change (FC)", "setting": "[12]", "value": 5.63}]}
{"compound": "CCCCCCCCn1nnnc1CCC(N)(CO)CO.Cl", "values": [{"measurement": "fold change (FC)", "setting": "[13]", "value": 7.7711}, {"measurement": "fold change (FC)", "setting": "[14]", "value": -4.9224}, {"measurement": "fold change (FC)", "setting": "[15]", "value": -5.1941}, {"measurement": "fold change (FC)", "setting": "[16]", "value": -6.1329}, {"measurement": "fold change (FC)", "setting": "[17]", "value": -6.6894}, {"measurement": "fold change (FC)", "setting": "[18]", "value": -4.4402}, {"measurement": "fold change (FC)", "setting": "[19]", "value": -3.5538}, {"measurement": "fold change (FC)", "setting": "[20]", "value": 4.2936}, {"measurement": "fold change (FC)", "setting": "[21]", "value": -5.1137}, {"measurement": "fold change (FC)", "setting": "[22]", "value": -5.9963}, {"measurement": "fold change (FC)", "setting": "[23]", "value": -3.772}, {"measurement": "fold change (FC)", "setting": "[24]", "value": -4.2885}, {"measurement": "fold change (FC)", "setting": "[25]", "value": -2.8875}, {"measurement": "fold change (FC)", "setting": "[26]", "value": -4.2226}, {"measurement": "fold change (FC)", "setting": "[27]", "value": -3.9685}, {"measurement": "fold change (FC)", "setting": "[28]", "value": 4.2103}]}
{"compound": "CCCCCCCCn1nnnc1-c1ccc(C(O)CC(N)(CO)CO)cc1.Cl", "note": "(stereo not given)", "values": [{"measurement": "fold change (FC)", "setting": "[29]", "value": -5.3267}, {"measurement": "fold change (FC)", "setting": "[30]", "value": -5.0784}, {"measurement": "fold change (FC)", "setting": "[31]", "value": -4.1339}, {"measurement": "fold change (FC)", "setting": "[32]", "value": -5.0773}, {"measurement": "fold change (FC)", "setting": "[33]", "value": 5.2803}, {"measurement": "fold change (FC)", "setting": "[34]", "value": -4.9847}, {"measurement": "fold change (FC)", "setting": "[35]", "value": -5.3124}, {"measurement": "fold change (FC)", "setting": "[36]", "value": -4.1626}, {"measurement": "fold change (FC)", "setting": "[37]", "value": -3.1207}, {"measurement": "fold change (FC)", "setting": "[38]", "value": -4.8484}, {"measurement": "fold change (FC)", "setting": "[39]", "value": -5.915}, {"measurement": "fold change (FC)", "setting": "[40]", "value": -3.3855}]}
